Measurements published in ChEMBL document CHEMBL4028852, “Design of a Chemical Probe for the Bromodomain and Plant Homeodomain Finger-Containing (BRPF) Family of Proteins” (J Med Chem, 2017).

Experiments:
Peregrin = molecular target: T1, Peregrin (Homo sapiens, UniProt P55201); assay: Inhibition of His-tagged BRPF1 (unknown origin) after 30 mins by alphaScreen assay
T1 sequence (P55201 whole entry): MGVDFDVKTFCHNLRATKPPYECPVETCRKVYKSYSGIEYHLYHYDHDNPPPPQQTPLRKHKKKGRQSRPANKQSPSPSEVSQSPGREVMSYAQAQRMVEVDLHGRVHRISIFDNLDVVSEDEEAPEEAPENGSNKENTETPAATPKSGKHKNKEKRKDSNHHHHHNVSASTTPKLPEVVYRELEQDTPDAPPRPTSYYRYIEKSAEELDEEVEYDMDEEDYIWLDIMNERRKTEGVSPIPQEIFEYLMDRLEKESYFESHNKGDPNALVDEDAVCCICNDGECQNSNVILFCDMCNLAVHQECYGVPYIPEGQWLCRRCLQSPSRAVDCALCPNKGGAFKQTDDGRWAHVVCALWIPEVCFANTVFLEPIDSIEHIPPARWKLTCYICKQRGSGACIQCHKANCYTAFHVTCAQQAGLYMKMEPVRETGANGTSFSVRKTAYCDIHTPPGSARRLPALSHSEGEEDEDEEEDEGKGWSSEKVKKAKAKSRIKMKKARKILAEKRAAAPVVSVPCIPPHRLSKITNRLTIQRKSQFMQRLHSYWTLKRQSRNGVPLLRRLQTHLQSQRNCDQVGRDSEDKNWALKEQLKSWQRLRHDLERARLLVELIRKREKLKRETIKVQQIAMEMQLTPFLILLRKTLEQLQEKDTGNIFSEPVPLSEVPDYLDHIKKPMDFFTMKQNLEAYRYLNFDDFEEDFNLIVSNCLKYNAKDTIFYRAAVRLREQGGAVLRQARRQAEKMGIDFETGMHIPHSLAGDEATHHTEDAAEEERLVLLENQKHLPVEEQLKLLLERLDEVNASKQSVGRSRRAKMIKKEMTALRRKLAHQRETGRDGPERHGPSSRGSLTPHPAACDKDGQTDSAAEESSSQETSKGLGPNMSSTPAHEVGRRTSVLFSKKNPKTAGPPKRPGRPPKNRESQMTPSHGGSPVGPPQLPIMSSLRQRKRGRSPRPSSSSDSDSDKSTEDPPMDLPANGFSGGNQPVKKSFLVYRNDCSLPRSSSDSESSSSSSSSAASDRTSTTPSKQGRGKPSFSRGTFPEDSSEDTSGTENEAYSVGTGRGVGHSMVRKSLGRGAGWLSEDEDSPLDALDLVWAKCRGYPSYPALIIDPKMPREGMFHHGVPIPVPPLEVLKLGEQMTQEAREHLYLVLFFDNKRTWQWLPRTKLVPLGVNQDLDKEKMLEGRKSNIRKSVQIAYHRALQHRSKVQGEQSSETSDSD

[1] = Oral bioavailability in CD1 mouse at 3 mg/kg by UPLC-MS/MS analysis; type: ADME, organism-based; settings: in vivo
DMS-114 = assay: Inhibition of cell proliferation of human DMS114 cells after 72 hrs by MTS assay; type: functional; settings: DMS-114, 72 h
[2] = molecular target: T2, ATPase family AAA domain-containing protein 2B (Homo sapiens, UniProt Q9ULI0); assay: Inhibition of human ATAD2B (955 to 1082 residues) expressed in Escherichia coli BL21 after 1 hr by BROMOscan assay
T2 sequence (Q9ULI0 whole entry): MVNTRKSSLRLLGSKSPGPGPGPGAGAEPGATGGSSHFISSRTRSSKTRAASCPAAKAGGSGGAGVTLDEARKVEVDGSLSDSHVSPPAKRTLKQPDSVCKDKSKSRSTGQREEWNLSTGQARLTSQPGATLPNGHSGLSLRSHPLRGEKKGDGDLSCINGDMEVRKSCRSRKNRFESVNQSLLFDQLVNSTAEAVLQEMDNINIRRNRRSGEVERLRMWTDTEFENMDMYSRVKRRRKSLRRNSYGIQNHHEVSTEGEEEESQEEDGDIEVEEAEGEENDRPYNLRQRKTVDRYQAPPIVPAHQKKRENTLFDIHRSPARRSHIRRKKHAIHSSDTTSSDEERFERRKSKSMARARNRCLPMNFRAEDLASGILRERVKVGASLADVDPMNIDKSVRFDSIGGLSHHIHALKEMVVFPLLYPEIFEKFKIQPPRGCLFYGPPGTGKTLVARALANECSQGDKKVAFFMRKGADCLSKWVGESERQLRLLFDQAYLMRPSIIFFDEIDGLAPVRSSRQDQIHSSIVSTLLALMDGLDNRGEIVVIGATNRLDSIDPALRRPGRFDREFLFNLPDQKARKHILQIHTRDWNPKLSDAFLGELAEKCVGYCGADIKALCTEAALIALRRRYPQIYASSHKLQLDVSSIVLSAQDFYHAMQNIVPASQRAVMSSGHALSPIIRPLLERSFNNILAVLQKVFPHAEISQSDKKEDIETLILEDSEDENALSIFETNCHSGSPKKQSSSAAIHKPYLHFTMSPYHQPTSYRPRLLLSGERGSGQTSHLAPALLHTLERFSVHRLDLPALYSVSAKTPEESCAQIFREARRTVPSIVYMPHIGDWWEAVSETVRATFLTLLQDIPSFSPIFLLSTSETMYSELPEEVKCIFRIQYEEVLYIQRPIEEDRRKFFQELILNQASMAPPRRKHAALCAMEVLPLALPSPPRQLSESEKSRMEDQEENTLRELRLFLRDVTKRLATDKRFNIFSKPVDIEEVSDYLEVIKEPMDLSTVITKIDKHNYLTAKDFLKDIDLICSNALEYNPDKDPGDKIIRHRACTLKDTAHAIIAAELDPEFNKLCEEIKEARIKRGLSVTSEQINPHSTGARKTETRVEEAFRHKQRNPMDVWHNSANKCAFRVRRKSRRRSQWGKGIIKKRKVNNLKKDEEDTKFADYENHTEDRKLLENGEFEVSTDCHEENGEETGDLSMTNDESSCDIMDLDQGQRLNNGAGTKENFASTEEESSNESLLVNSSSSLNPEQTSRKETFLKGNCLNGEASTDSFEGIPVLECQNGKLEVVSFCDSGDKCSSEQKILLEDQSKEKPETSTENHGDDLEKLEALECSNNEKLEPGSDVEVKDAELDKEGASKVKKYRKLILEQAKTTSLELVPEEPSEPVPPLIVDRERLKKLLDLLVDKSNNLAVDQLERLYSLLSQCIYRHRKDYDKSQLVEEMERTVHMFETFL

[3] = Inhibition of cell proliferation of human HRA19 cells after 72 hrs by MTS assay; type: functional; settings: HRA19, 72 h

COc1cc(C#N)ccc1S(=O)(=O)Nc1ccc2c(c1)cc(C)c(=O)n2C
IC50 (Peregrin): 0.114 µM | bioavailability [1]: 29% | GI50 (DMS-114): 14.7 µM | IC50 [2]: > 100 µM | GI50 [3]: 15.6 µM
